Laboratory results as given in patent US20110306071A1, “Compositions and Methods for Identifying Substrate Specificity of Inhibitors of Gamma Secretase” (ELAN PHARMACEUTICALS, INC., priority 2007, published 2011).

Legend:
[1] = tested on: gamma secretase; experiment: Aβ production from C99GVP and mutant or chimeric substrates in transfected HEK cells (ELISA, IP/Western blot); type: cell-based, Human; details: for effect on secreted Aβ / Aβ production compared with C99GVP control: FIGS. 8C, 8D, 9B, 9C; for drop of Aβ40: Aβ40 ELISA, FIG. 9C; for reduction in total Aβ: IP/Western blot densitometry, FIG. 9B
Source text: Plasmid Construction of JMD Chimeric Substrates: A pcDNA3.1-C99 plasmid similar to the previously described SPA4CT-LE construct (Dyrks, et al., FEBS Lett., 1992; 309: 20-24) was generated by standard PCR techniques. The APP signal peptide was fused to the N-terminus of the C99 fragment via a dipeptide leucine-glutamic acid (LE) linker. The strategy used to generate the pcDNA3.1-C99GVP construct was similar to a previously described method (Karlstrom, H., et al., J. Biol. Chem., 2002; 277: 6763-6766). (See, generally, FIG. 3). Briefly, an AscI site was introduced immediately 3′ of the nucleotides encoding the triple-lysine (K) membrane anchor of C99, where the GVP coding sequence was subsequently inserted in frame (to the C-terminal side of the lysine membrane anchor sequence of C99). […] All three chimeras were constructed by using a two-stage PCR method with two pairs of overlapping primers (for list of primers, see Table I). These chimeric substrates were characterized to assess activity as gamma secretase substrates and subsequent production and secretion of Aβ and AICD (FIGS. 6-7). […] The C99GVP-SLSS quadruple JMD chimera was also constructed with the same PCR method. Point mutations within the luminal juxtamembrane domain (i.e., C99GVP-G25S, S26L, N27S and K28S; FIGS. 2 and 9A-D) were generated using QuikChange (Stratagene) site-directed mutagenesis kit according to the manufacturer's instructions. All cDNAs were verified by sequencing. The Aβ and Aβ-like peptides generated from C99GVP and the various chimeric substrates were numbered with reference to the first N-terminal residue (Asp-1) of the Aβ peptide.
Cell Culture and Transient Transfection: Human embryonic kidney 293 (HEK 293) cells (ATCC) were grown in Dulbecco's Modified Eagle Medium with High Glucose (DMEM, obtained from Gibco/Invitrogen, Cat #11960) supplemented with 10% fetal bovine serum (Hyclone, SV 30014.03) and 50 units/ml penicillin and streptomycin (37° C., 5% CO2). Cells were used at less than passage number 30. At the time of seeding, viability of cells was greater than 95% as determined using a Vi-Cell Analyzer (Beckman-Coulter). Confluence of cells on plates was kept at greater than 95% during all phases of the experiment as determined with a standard tissue culture inverted microscope. All transfections were carried out on 5×10^6 cells in 6-well tissue culture plates (Costar). The following 3 plasmids: pG5E1B-luc, 200 ng (gift from R. Maurer, OHSU); pCMV-β-gal, 100 ng (gift from R. Maurer, OHSU); C99GVP or the various chimeric constructs, 200-400 ng were added together to each well. FuGENE6 reagent (Roche Cat. #11-814443001) was used according to manufacturer's protocol for the transient transfection of adherent cells. Transfected cells were reseeded onto 12 well (2×10^6 cells) and/or 96-well (5×10^4 cells) plates (Costar) 16 h post-transfection; fresh media was added either with or without gamma secretase inhibitors. The cells and conditioned media were harvested 48 h post-transfection for analysis.
Immunoprecipitation (IP) and Western Blot Detection of Aβ: Total Aβ peptides in conditioned medium or cell lysate were immuno-precipitated at 4° C. overnight with 4 μg of the 2H3 antibody, followed by incubation with 50 μl of a 50% protein G-Sepharose (GE Healthcare) slurry for 1 hr and three washes in the same lysis buffer as described above in the Western Blot discussion. Proteins were eluted from the solid-phase immunoprecipitates in Laemmli sample buffer by heating at 70° C. for 5 min and resolved on 10-20% Tris-Tricine SDS-PAGE or the modified Tris-Tricine/8M urea gels (Qi-Takahara, Y., et al., J Neurosci. (2005; 25, 436-445). After transferring onto nitrocellulose membranes (Invitrogen), the membranes were heated to 98° C. for 5 min in PBS, immunostained with the 2H3 antibody and visualized with Super-signal West Pico chemiluminescent substrate (Pierce). Each experiment was repeated at least three times. […]

[2] = target: T1, gamma secretase γ and ε cleavage of Fas-APPsw-DD (Homo sapiens, UniProt P49768); experiment: Concurrent Aβ and AICD ELISA in Fas-APPsw-DD transfected 293 cells (APP γ versus ε cleavage); type: cell-based
T1 construct: active gamma secretase is endogenously and constitutively produced by the cell cultures; endogenous in cells; host or cells: HEK 293, transfected with Fas-APPsw-DD
Procedure: Polyclonal antibody AICD ELISA. HEK 293 cells were grown under standard conditions to ˜90% confluence. Cells were harvested, counted, and subsequently plated onto PDL-coated 60 mm dishes at 2×10^6 cells/dish in 5 mL media. The cells were allowed to settle onto the dishes for ˜4 hours. Transfection of various construct into cells was performed using standard techniques using Lipofectamine 2000™ (LF2K) (Invitrogen). Briefly, 2 μg plasmid DNA and 4 μL LF2K were diluted into separate 150 μL aliquots of Opti-MEM (Gibco), and allowed to stand for 10-15 minutes. The two aliquots were then mixed, and the DNA:Lipid complex allowed to form for about 20 minutes. The 300 μL DNA:Lipid complex was then added to the cells in 3 mL fresh media, and incubated overnight. In order to administer potential or known gamma secretase inhibitor compounds to cells, the transfected cells were harvested, replated into PDL-coated 24-well plates at 200,000 cells/well, and allowed to settle onto the plates for ˜4 hours. Cells were washed, and 500 μL fresh media added. […]
The term ‘non-selective’ in this instance refers to lack of selectivity for cell Aβ over Notch signaling (or GammaAPP over GammaNotch). […] The calculated γ/ε selectivity of the non-selective compounds (FIG. 11 and Table I) were 0.7, 1.1, 1.8 and 1.9 for DAPT, 44989, 46719 and the Merck compound, respectively. […]

[3] = target: T2, gamma secretase cleavage of C99GVP (AICD-GVP) (Homo sapiens, UniProt P49768); experiment: Luciferase reporter gene assay, AICD-GVP transactivation from C99GVP in HEK293 cells; type: cell-based; details: C99-GVP, FIG. 5C
T2 construct: active gamma secretase is endogenously and constitutively produced by the cell cultures; endogenous in cells; host or cells: HEK 293, co-transfected with C99GVP, pG5E1B-luc and pCMV-β-gal
Procedure: Luciferase Reporter Gene Assay: Luciferase reporter assays were carried out 48 hr post-transfection. Cells seeded on 96-well plates (BD Biosciences) were washed once with PBS and harvested in 20 μl of reporter lysis buffer (Promega) per well. After adding 100 μl of luminescent substrate (Promega), the luciferase activity was measured with a MicroLumatPlus microplate luminometer (Berthold Technologies). The β-galactosidase activity was measured similarly, using a luminescent β-galactosidase substrate (BD Biosciences). As a control for transfection efficiency and general effect on transcription, the luciferase activity was normalized by measuring β-galactosidase activity on a duplicate plate. All measurements were done in triplicate and repeated at least three times.
Luciferase Assay. After confirming AICD-GVP generation in HEK cells, its ability to transactivate a luciferase reporter gene that contains Gal4 response elements in the upstream activation sequence (UAS) was tested. […] Some residual luciferase activity remained in the presence of excess gamma secretase inhibitors, even though identical treatment completely abolished AICD production as measured by Western blot (FIG. 5B). […]

[4] = tested on: gamma secretase (secreted Aβ40 and Aβ42); experiment: Aβ sandwich ELISA of media from C99GVP or APP transfected HEK cells treated with inhibitors; type: cell-based, Human
Procedure: Inhibitor Treatment of Transfected HEK Cell: The transition state analogue gamma secretase inhibitor-L685,458 (Sigma) and the peptidomimetic inhibitor-DAPT (Dovey, H. F., et al., J Neurochem., 2001; 76:173-181) were dissolved in DMSO to make 20 mM stocks. Similarly, a number of Elan's series of sulfonamide inhibitors were prepared and used as described herein (see, also FIGS. 11-14). Inhibitors were added to cell cultures (e.g., HEK) at the indicated final concentration, and the treated cells were harvested 48 h post-transfection. The metallo-proteinase inhibitor TAPI-1 (Calbiochem) was used at a final concentration of 40 μM. The Aβ-degrading enzyme inhibitors, Bacitracin (Calbiochem) and phosphoramidon (Calbiochem) were used at final concentration of 1 mg/ml and 40 μM, respectively. All inhibitor experiments were performed in triplicate and repeated at least three times.
ELISAs used to quantify different Aβ species were performed using standard techniques as described above and in (Johnson-Wood, K., et al., Proc. Natl. Acad. Sci. U.S.A., 1997; 94: 1550-1555, incorporated by reference). The Aβ40 and Aβ42 peptides in the samples were captured onto 2G3 or 21F12 antibody coated plates, respectively, and detected with a biotinylated 2H3 antibody. The fluorescence signal generated from a streptavidin-alkaline phosphatase conjugate (Roche) was measured with a CytoFlour microplate reader (Applied Biosystems). Synthetic Aβ40 or Aβ42 peptides (Anaspec) were used to generate standard curves (FIG. 10). All measurements were done in triplicate.
Next, Aβ generation was characterized from C99GVP. Wild type HEK cells and the mock-transfection control secreted little Aβ into the conditioned media (FIG. 5D, lane 1). In contrast, transient expression of C99GVP led to robust Aβ production, as measured by IP/Western blot (FIG. 5D) and ELISAs that detect Aβ 40 and Aβ42 species, respectively ([…], top panel). […] Finally, we compared the Aβ-lowering potency of two inhibitors, using either C99GVP or the wild type APP as substrate. As determined by ELISA, the respective IC50 values for the two substrates are essentially identical (FIG. 5E).

## G25S: C99GVP point mutant G25S in the GSNK motif (SEQ ID NO:43) (LEDAEFRHDSGYEVHHQKLVFFAEDVSSNKGAIIGLMVGGVVIATVIVITLVML)
[1]
  effect on secreted Aβ / Aβ production compared with C99GVP control: no obvious effect

## N27S: C99GVP point mutant N27S in the GSNK motif (SEQ ID NO:45) (LEDAEFRHDSGYEVHHQKLVFFAEDVGSSKGAIIGLMVGGVVIATVIVITLVML)
[1]
  effect on secreted Aβ / Aβ production compared with C99GVP control: no obvious effect

## C99GVP-APLP2*: APLP2 JMD swap chimera of C99GVP retaining the pre-TMD GSNK motif of APP (SEQ ID NO:19) (LEDAEFRHDSGLEEERESVGPLREDFGSNKGAIIGLMVGGVVIATVIVITLVML)
[1]
  effect on secreted Aβ / Aβ production compared with C99GVP control: indistinguishable from the C99GVP control

## C99GVP-K28S: C99GVP point mutant K28S in the GSNK motif (SEQ ID NO:46) (LEDAEFRHDSGYEVHHQKLVFFAEDVGSNSGAIIGLMVGGVVIATVIVITLVML)
[1]; versus C99GVP
  drop of Aβ40: ~90%
  reduction in total Aβ: ~90%

## CC(C)C[C@H](NC(=O)[C@H](Cc1ccccc1)C[C@@H](O)[C@H](Cc1ccccc1)NC(=O)OC(C)(C)C)C(=O)N[C@@H](Cc1ccccc1)C(N)=O [L-685,458]
[2]
  γ/ε selectivity = IC50 AICD/IC50 Aβ: 1.9
[3]
  luciferase reporter transactivation by AICD-GVP: block luciferase reporter transactivation
[4]; 5 μM, 24 h, FIG. 5D
  secreted Aβ (Aβ40 and Aβ42): block secreted Aβ
[4]; FIG. 5E
  Aβ potency (IC50) with C99GVP versus native APP substrate: equal Aβ potency

## C99GVP-S26L: C99GVP point mutant S26L in the GSNK motif (SEQ ID NO:44) (LEDAEFRHDSGYEVHHQKLVFFAEDVGLNKGAIIGLMVGGVVIATVIVITLVML)
[1]; versus C99GVP
  drop of Aβ40: 52.7±2.3%
  reduction in total Aβ: 65.7±8.5%

B1: C99GVP-SLSS: C99GVP in which the GSNK motif was substituted with SLSS from APLP2 (SEQ ID NO:51) (protein)
chain: DAEFRHDSGYEVHHQKLVFFAEDVSLSSGAIIGLMVGGVVIATVIVITLVMLKKKKLLSSIEQACDICRLKKLKCSKEKPKCAKCLKNNWECRYSPKTKRSPLTRAHLTEVESRLERLEQLFLLIFPREDLDMILKMDSLQDIKALLTGLFVQDNVNKDAVTDRLASVETDMPLTLRQHRISATSSSEESSNKGQRQLTVSGIPGDLAPPTDVSLGDELHLDGEDVAMAHADALDDFDLDMLGDGDSPGPGFTPHDSAPYGALDMADFEFEQMFTDALGIDEYGGQYTSIHHGVVEVDAAVTPEERHLSKMQQNGYENPTYKFFEQMQN
[1]; versus C99GVP, FIGS. 9B and 9C
  reduction in secreted Aβ: ~97%
